For one assay, the system named is TTXs sodium channels. The assay is described as follows: TTXs-sodium channel influx assay (fluorescence, ND7/23 cell line). The format is cell-based, rat. The note with it: ND7/23 cells, veratridine 100 μM; read-out: Na+ influx IC50. The procedure:
ND7/23 rat dorsal root ganglion-derived cell line endogenously expresses a mixed population of TTXs sodium channels. These cells lack of TTXr sodium channels as shown by the absence of their respective transcripts.
ND7/23 cells were grown in DMEM supplemented with 10% FBS and 1 mM sodium piruvate. The cells were seeded at 50,000 cells/well on 96 poly-L-lysine-coated plates and further incubated for 18-24 h before use.
The Membrane Potential Kit Assay (Molecular Devices), based on a negatively charged fluorescent dye able to monitor changes in membrane potential caused by the sodium influx due to the channel opening, was used for the assay.
Cells were incubated with the dye loading for 30 minutes at 25° C. Then, 100 nM of the toxin Anemonia sulcata (used as enhancer of the channel opener response) alone or in the presence of TTX (as reference standard) or test compound were added for further 15 minutes.
The fluorescence (excitation:530 nm, emission: 565 nm wavelength) was measured before and after (40-45 s) the automated injection of the sodium channel opener veratridine (100 μM) using a Victor plate reader (Perkin Elmer).
(§1) The inhibition curves were calculated from 5 concentrations, each in triplicate, and the IC50 determined using linear regression analysis.

For a further assay, the target named is MAO-B (Rattus norvegicus (Rat), UniProt P19643). Put plainly: In vitro MAO-B enzyme activity assay (radioenzymatic, rat brain mitochondria). The assay is classed as biochemical. The note with it: 14C-PEA 0.5 μM. How it is done: Male Wistar rats (Harlan, Italy weighing 175-200 g) were sacrificed under light anaesthesia and brains were rapidly removed and homogenized in 8 volumes of ice-cold 0.32 M sucrose buffer containing 0.1 M EDTA, pH 7.4. The crude homogenate was centrifuged at 2220 rpm for 10 minutes and the supernatant recovered. The pellet was homogenized and centrifuged again. The two supernatants were pooled and centrifuged at 9250 rpm for 10 minutes at +4° C. The pellet was resuspended in fresh buffer and centrifuged at 11250 rpm for 10 minutes at +4° C. The resulting pellet was stored at −80° C. The enzyme activity was assessed with a radioenzymatic assay using the substrate ^14C-phenylethylamine (PEA) specific for MAO-B. The mitochondrial pellet (500 μg protein) was resuspended in 0.1 M phosphate buffer (pH 7.4). 200 μl of the suspension were added to a 50 μl solution of the test compound or buffer, and incubated for 30 min at 37° C. (preincubation) then the substrate (50 μl) was added. The incubation was carried out for 10 minutes at 37° C. (^14C-PEA, 0.5 μM). The reaction was stopped by adding 0.2 ml of perchloric acid. After centrifugation, the deaminated metabolites were extracted with 3 ml of toluene and the radioactive organic phase containing the neutral and/or acidic metabolites formed as a result of MAO-B activity was measured by liquid scintillation spectrometry at 90% efficiency. The MAO-B activity was expressed as nmoles of substrate transformed/mg protein/min.
Sequence of MAO-B (P19643 whole entry): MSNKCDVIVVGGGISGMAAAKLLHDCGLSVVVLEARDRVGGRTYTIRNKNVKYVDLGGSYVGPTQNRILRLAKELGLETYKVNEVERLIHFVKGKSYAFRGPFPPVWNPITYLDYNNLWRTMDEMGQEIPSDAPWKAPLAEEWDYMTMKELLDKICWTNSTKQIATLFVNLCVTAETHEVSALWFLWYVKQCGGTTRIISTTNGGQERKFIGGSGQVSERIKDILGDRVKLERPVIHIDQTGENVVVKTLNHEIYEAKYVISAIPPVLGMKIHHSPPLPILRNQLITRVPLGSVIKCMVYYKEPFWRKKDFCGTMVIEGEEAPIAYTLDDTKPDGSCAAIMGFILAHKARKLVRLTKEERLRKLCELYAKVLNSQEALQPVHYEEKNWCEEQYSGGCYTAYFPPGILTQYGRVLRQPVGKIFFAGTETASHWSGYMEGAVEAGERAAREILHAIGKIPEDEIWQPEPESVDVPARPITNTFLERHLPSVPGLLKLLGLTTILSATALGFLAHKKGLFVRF

In the next assay the test system is mice. Put plainly: Maximal electroshock test (MES) in mice. The assay is classed as in vivo. Conditions: for ED50: Mus musculus, po, read-out: ED50 (mg/kg p.o.). An excerpt: The maximal electroshock test (MES) is used commonly in the screening of anti-epileptic drugs in rodent models.
Animals and Apparatus: Male CD1 mice weighing 25 g were used. The procedure described by White et al. (White H. S., Woodhead J. H., Franklin M. R., Swinyard E. A., and Wolf H. H. Antiepileptic Drugs (1995) 4th ed: 99-110, Raven Press, Ltd., New York) was followed. An Ugo Basile electroconvulsive generator (Model ECT UNIT 7801) was used to deliver an electrical stimulus sufficient to produce a hindlimb tonic extensor response in at least 97% of control animals. The stimulus was delivered intra-aurally through clip electrodes in mice (0.7 s of a 40 mA shock, with a pulse train of 80 Hz having a pulse duration of 0.4 ms). The acute effect of compounds administered intraperitoneally (i.p.), subcutaneously (s.c.), intravenously (i.v.) or orally (p.o.) 5-120 minutes before MES induction were examined and compared with a vehicle control group. Ten mice were studied per group. Complete suppression of the hindlimb tonic extensor component of seizures was taken as evidence of anticonvulsant activity.
The compounds of the invention were administered p.o. or i.v., at the doses of 0.1-100 mg/kg.

In assay [1] the test system is Na+ currents in ND7/23 cells (TTX-s). Put plainly: Patch clamp evaluation of Na+ currents blockade in ND7/23 cell line. The format is cell-based, rat. The note with it: for pKi: calculated from Kr and Kdep, read-out: Ki (apparent affinity for the inactivated state). The procedure:
ND7/23 (ECACC No 92090903 from SIGMA), is a hybrid cell line derived from a neonatal rat DRG fused with the mouse neuroblastoma N18Tg2 (Wood et al., Proc. Biol. Sci., 1990 September, 241(1302), 187-194).
The molecular identity of the channels responsible for the TTX-s conductance is unknown but it is presumed that TTX-s conductance arises from the activity of a mixed population of sodium channels.
Cells are routinously maintained in DMEM with 10% of FBS, 4 mM glutamine, 1 mM sodium piruvate. The day before the patch clamp experiment cells are detached and seeded at 100,000 cells/polylysine-coated 35 mm Petri dish.
Experiments on ND7/23 cells were carried out using standard whole cell patch clamp methods (Hamill et al., Pfugers Arch., 1981 August, 391(12), 85-100), as described in previous section.
To test the effect of compounds on sodium currents in ND7/23 cells, holding membrane potential was set at −90 mV, then a two step protocol was used to determine the voltage dependence of the block. Sodium currents were activated by a 30 ms step pulse to 0 mV (test pulse) from a 2000 ms preconditioning potential of −110 mV (resting condition) and a potential of ˜−70 mV (half maximal steady-state condition).
Tonic block of resting and depolarized currents at a given drug concentration was calculated as the difference between the peak Na^+ current in the control external bath solution and peak currents with the test substance divided by control peak.
Drug concentration-inhibition curves were obtained by plotting tonic blocks in the resting and depolarized condition, versus drug concentrations. Dose-response curves were fitted to the tonic block data, according to the logistic equation: y=A2+(A1−A2)/[1+(x/IC50)p]. A1 and A2 are fixed values of 0 and 1 corresponding to 0 and 100% current inhibition, x is the drug concentration, IC50 is the drug concentration resulting in 50% current inhibition and p is the corresponding slope factor.
The apparent affinity of drug for the inactivated state (Ki) was calculated according to the equation 1/Kdep=h/Kr+(1−h)/Ki where Kr is the affinity of drug for the resting/closed state; Kdep is the IC50 in the depolarized condition, h and (1−h) are the fractions of channels present at the rest. and dep. potentials, respectively.
Control bath solution contained (mM): NaCl 80, Choline HCl 40, CaCl2 1.3, MgCl2 2, KCl 2, CdCl2 0.4, NiCl2 0.3, TEACl 20, Hepes 10, Glucose 10.
Internal pipette solution consisted of (mM): CsF 65, CsCl 65, NaCl 10, CaCl2 1.3, MgCl2 2, Hepes 10, EGTA 10, MgATP 1.
Compounds were dissolved as stock solutions (20 mM) in DMSO. They were diluted to the final concentrations in the external solution.

Another assay concerns L-type calcium channels. Put plainly: Calcium channel influx assay (fluorescence, AtT20 cell line). The format is cell-based, mouse. Conditions: AtT20 cells, 100 mM KCl depolarization; read-out: Ca++ influx IC50. The procedure:
AtT20/D16v-F2 mouse pituitary tumour cell line preferentially expresses L-type calcium channels.
AtT20 cells were grown in DMEM with 10% of FBS, 4 mM glutamine. The cells were seeded at 200,000 cells/well on 96 poly-L-lysine-coated plates and further incubated for 18-24 h, before use.
The Ca^++ Kit Assay (Molecular Devices), which is based on a fluorescent calcium indicator to detect the calcium influx determined by depolarizing conditions, was used for the assay.
Cells were incubated with the calcium dye loading for 30 min at 37° C. Then, ω-conotoxin alone (1 μM) or in presence of nifedipine (as reference standard) or test compound were added for further 15 min.
The fluorescence (excitation: 485-emission: 535 nm wavelength) was measured before and after (30-40 sec) the automated injection of 100 mM KCl depolarizing solution using a Victor plate reader (Perkin Elmer).
as §1

Where [2] appears, read: read-out: IC50 depolarized, preconditioning potential ~-70 mV.
Where [3] appears, read: read-out: IC50 resting (Kr), preconditioning potential -110 mV.

pIC50, pKi: −log10 of the molar value. Where a name gives a salt, the structure may show the parent alone. Read-outs that look alike come from different tables or passages of the source. Where only a bound is given, the exact number is not on record here.

As to `CCCCOc1ccc(F)c(CCNCC(=O)N(C)C)c1F.Cl` [2-[2-(3-Butoxy-2,6-difluorophenyl)-ethylamino]-N,N-dimethylacetamide hydrochloride], the negative logarithm of the IC50 (pIC50) with TTXs sodium channels is 5.59; against MAO-B, under 3.52. In addition, the ED50 in the assay on mice (mice, MES, p.o.) was 2 mg/kg. Moreover, the “% protection 10 mg/kg p.o.” value in the assay with mice (mice, MES) is reported as 100%.
With `CCCCOc1cccc(CCNCC(=O)N(C)C)c1F` [2-[2-(3-Butoxy-2-fluorophenyl)-ethylamino]-N,N-dimethylacetamide], the pKi in assay [1] was 6.00. Besides, the pIC50 is 5.77 in assay [1] (setting [2]) and 4.89 in assay [1] (setting [3]).
At MAO-B, `CCCCOc1cc(CCNCC(=O)N(C)C)ccc1OC` [2-[2-(3-Butoxy-4-methoxyphenyl)-ethylamino]-N,N-dimethylacetamide hydrochloride] had a pIC50 of under 3.52.
For the molecule `CCCCOc1cc(CCNCC(=O)N(C)C)ccc1C.Cl` [2-[2-(3-Butoxy-4-methylphenyl)-ethylamino]-N,N-dimethylacetamide hydrochloride], the pIC50 in the assay with TTXs sodium channels is 6.15; in the assay with L-type calcium channels, 5.00. For the same molecule, the “% protection 10 mg/kg p.o.” value in the assay on mice (mice, MES) came out at 40%.
`CCCCOc1cccc(CCNCC(=O)N2CCCC2)c1` [2-[2-(3-Butoxyphenyl)-ethylamino]-1-pyrrolidin-1-yl-ethanone hydrochloride]: the pIC50 in the assay with TTXs sodium channels is 5.68.
For the molecule `CCCCOc1cccc(CCNC(C)(C)C(=O)N(C)C)c1` [2-[2-(3-Butoxyphenyl)-ethylamino]-2,N,N-trimethylpropanamide hydrochloride], in the assay with TTXs sodium channels, the pIC50 is 6.15.
For the molecule `CCCCOc1cccc(CCNCC(=O)N(CCCC)CCCC)c1` [2-[2-(3-Butoxyphenyl)-ethylamino]-N,N-dibutylacetamide hydrochloride], the negative-log IC50 (pIC50) is 5.92 with TTXs sodium channels and 5.74 in the assay on L-type calcium channels.
Taken in the same sequence, the figures for `CCCCOc1cccc(CCNCC(=O)N(CC)CC)c1` [2-[2-(3-Butoxyphenyl)-ethylamino]-N,N-diethylacetamide hydrochloride] were 6.22 and 5.17.
Regarding `CCCCOc1cccc(CCNC(C)C(=O)N(C)C)c1.Cl` (stereo not shown) [2-[2-(3-Butoxyphenyl)-ethylamino]-N,N-dimethylpropanamide hydrochloride], the results for the pIC50 with TTXs sodium channels and at MAO-B were 5.96 and under 3.52, respectively. Moreover, in the assay on mice (mice, MES, p.o.), the ED50 was determined as 6.5 mg/kg. In addition, in the assay with mice (mice, MES), the “% protection 10 mg/kg p.o.” value came to 60%.
Consider `CCCCOc1cccc(CCNCC(=S)N(C)C)c1` [2-[2-(3-Butoxyphenyl)-ethylamino]-N,N-dimethylthioacetamide hydrochloride], for which the results for the pIC50 in the assay on TTXs sodium channels and in the assay on L-type calcium channels were 5.92 and 5.12, respectively.
`CCCCOc1cccc(CCNCC(=O)N(CCC)CCC)c1` [2-[2-(3-Butoxyphenyl)-ethylamino]-N,N-dipropylacetamide hydrochloride]: the figures for the pIC50 in the assay with TTXs sodium channels and with L-type calcium channels were 6.30 and 5.96, respectively.
With `CCCCOc1cccc(CCNCC(=O)NC)c1.Cl` [2-[2-(3-Butoxyphenyl)-ethylamino]-N-methylacetamide hydrochloride], the pIC50 against MAO-B is 3.96. Moreover, the ED50 in the assay with mice (mice, MES, p.o.) was found to be 12.1 mg/kg. Also, the “% protection 10 mg/kg p.o.” value in the assay with mice (mice, MES) was 30%.
For `CCCCSc1cccc(CCNCC(=O)N(C)C)c1` [2-[2-(3-Butylthiophenyl)-ethylamino]-N,N-dimethylacetamide hydrochloride], in the assay on L-type calcium channels, the pIC50 was 5.14.
Turning to `CCCCCCOc1cccc(CCNCC(=O)N(C)C)c1.Cl` [2-[2-(3-Hexyloxyphenyl)-ethylamino]-N,N-dimethylacetamide hydrochloride], the negative logarithm of the IC50 (pIC50) in the assay with TTXs sodium channels is 6.30; in the assay on L-type calcium channels, 5.40. In the assay on mice (mice, MES, p.o.), the ED50 was 4.6 mg/kg. Besides, the “% protection 10 mg/kg p.o.” value in the assay with mice (mice, MES) was 100%.
Turning to `CCCCCOc1cccc(CCNCC(=O)N(C)C)c1.Cl` [2-[2-(3-Pentyloxyphenyl)-ethylamino]-N,N-dimethylacetamide hydrochloride], the pIC50 is 6.30 in the assay on TTXs sodium channels, 5.08 in the assay with L-type calcium channels, 6.15 in assay [1] (setting [2]) and 5.54 in assay [1] (setting [3]). For the same molecule, the pKi in assay [1] is 6.30. In addition, the ED50 in the assay with mice stood at 2.8 mg/kg. Further, the “% protection 10 mg/kg p.o.” value in the assay with mice (mice, MES) is on record as 100%.
On to `CCCCCOc1cccc(CCNCC(=O)N(CCC)CCC)c1` [2-[2-(3-Pentyloxyphenyl)-ethylamino]-N,N-dipropylacetamide hydrochloride], for which the pIC50 in the assay on TTXs sodium channels was 5.96; with L-type calcium channels, 5.16.
Turning to `CN(C)C(=O)CNCCc1cccc(OCCCC(F)(F)F)c1` [2-{2-[3-(4,4,4-Trifluorobutoxy)phenyl]-ethylamino}-N,N-dimethylacetamide hydrochloride], in the assay with L-type calcium channels, the pIC50 is 5.03.

(Values after patent publication US9051240B2, “Substituted 2-[2-(phenyl) ethylamino] alkaneamide derivatives and their use as sodium and/or calcium channel modulators” (Newron Pharmaceuticals S.P.A., priority 2007, dated 2015).)
